# Target: T1, HIV-integrase (Human immunodeficiency virus type 1 group M subtype B, UniProt P12497)
# T1 construct: Recombinant integrase (0.26 ng) was incubated with the beads
# Experiment: HIV-Integrase Inhibition Activity (SPA bead integration assay with P33 labeled target DNA)
# Format: biochemical
# Settings: recombinant integrase, class symbols; read-out: in vitro activity
# How it was run: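 Biotinylated substrate DNA on streptavidin SPA beads loaded with recombinant integrase (90 min, 37° C), washed, then inhibitor plus 0.1 fmol P33-labeled target DNA added. Reaction stopped with 10 mM EDTA; integration measured as CPM by scintillation, giving IC50 ranks.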
row,SMILES,IC50
1,COc1ccccc1CNC(=O)c1nc2n(c(=O)c1O)CC1CCC2(NC(=O)C(=O)N(C)C)CC1 [Example 369],< 10 nM
2,"CN(C)CCN(C)C(=O)C(=O)NC12CCC(CC1)Cn1c2nc(C(=O)NCc2ccc(F)cc2)c(O)c1=O [Example 93, N-(2-(Dimethylamino)ethyl)-N′-(2-((4-fluorobenzyl)carbamoyl)-3-hydroxy-4-oxo-6,7,8,9-tetrahydro-7,10-ethanopyrimido[1,2-a]azepin-10(4H)-yl)-N-methylethanediamide]",< 10 nM
3,"O=C(NC12CCC(CC1)Cn1c2nc(C(=O)NCc2ccc(F)cc2)c(O)c1=O)c1ncccn1 [Example 311, 7,10-Ethanopyrimido[1,2-a]azepine-2-carboxamide, N-[(4-fluorophenyl)methyl]-4,6,7,8,9,10-hexahydro-3-hydroxy-4-oxo-10-[(2-pyrimidinylcarbonyl)amino]-]",< 10 nM
4,Cc1cccc(S(=O)(=O)NC23CCC(CC2)Cn2c3nc(C(=O)NCc3ccc(F)cc3)c(O)c2=O)c1 [Example 391],< 10 nM
5,"CN(C)C(=O)C(=O)NC12CCC(CC1)Cn1c2nc(C(=O)NCc2c[nH]c3ccccc23)c(O)c1=O [Example 235, Ethanediamide, N,N-dimethyl-N′-[6,7,8,9-tetrahydro-3-hydroxy-2-[[(1H-indol-3-ylmethyl)amino]carbonyl]-4-oxo-7,10-ethanopyrimido[1,2-a]azepin-10(4H)-yl]-]",< 10 nM
6,"COC(=O)c1cn(C(C)(C)C(=O)NC23CCC(CC2)Cn2c3nc(C(=O)NCc3ccc(F)c(C)c3)c(O)c2=O)nn1 [Example 284, 1H-1,2,3-Triazole-4-carboxylic acid, 1-[2-[[2-[[[(4-fluoro-3-methylphenyl)methyl]amino]carbonyl]-6,7,8,9-tetrahydro-3-hydroxy-4-oxo-7,10-ethanopyrimido[1,2-a]azepin-10(4H)-yl]amino]-1,1-dimethyl-2-oxoethyl]-, methyl ester]",< 10 nM
7,"CN(CC1CCCO1)C(=O)C(=O)N(C)C12CCC(CC1)Cn1c2nc(C(=O)NCc2ccc(F)cc2)c(O)c1=O (centres unmarked) [Example 165, N-(2-((4-Fluorobenzyl)carbamoyl)-3-hydroxy-4-oxo-6,7,8,9-tetrahydro-7,10-ethanopyrimido[1,2-a]azepin-10(4H)-yl)-N,N′-dimethyl-N′-(tetrahydro-2-furanylmethyl)ethanediamide]",< 10 nM
8,"Cc1cc(CNC(=O)c2nc3n(c(=O)c2O)CC2CCC3(NC(=O)N(C)c3ccccn3)CC2)ccc1F [Example 329, 7,10-Ethanopyrimido[1,2-a]azepine-2-carboxamide, N-[(4-fluoro-3-methylphenyl)methyl]-4,6,7,8,9,10-hexahydro-3-hydroxy-10-[[(methyl-2-pyridinylamino)carbonyl]amino]-4-oxo-]",< 10 nM
9,"COCC(=O)N1CCN(C(=O)C(=O)NC23CCC(CC2)Cn2c3nc(C(=O)NCc3ccc(F)cc3)c(O)c2=O)CC1 [Example 141, N-(4-Fluorobenzyl)-3-hydroxy-10-(((4-(methoxyacetyl)-1-piperazinyl)(oxo)acetyl)amino)-4-oxo-4,6,7,8,9,10-hexahydro-7,10-ethanopyrimido[1,2-a]azepine-2-carboxamide]",< 10 nM
10,"O=C(NC12CCC(CC1)Cn1c2nc(C(=O)NCc2ccc(F)cc2)c(O)c1=O)C(=O)N1CCN(C(=O)N2CCOCC2)CC1 [Example 79, N-(4-Fluorobenzyl)-3-hydroxy-10-(((4-(4-morpholinylcarbonyl)-1-piperazinyl)(oxo)acetyl)amino)-4-oxo-4,6,7,8,9,10-hexahydro-7,10-ethanopyrimido[1,2-a]azepine-2-carboxamide]",< 10 nM
11,"CN(C)C(=O)C(=O)NC12CCC(Cn3c1nc(C(=O)NCc1ccc(F)cc1)c(O)c3=O)C2 (centres unmarked) [Example 188, Ethanediamide, N′-[2-[[[(4-fluorophenyl)methyl]amino]carbonyl]-6,7,8,9-tetrahydro-3-hydroxy-4-oxo-7,11-methanopyrimido[1,2-a]azepin-10(4H)-yl]-N,N-dimethyl-]",< 10 nM

# Reference: patent publication US8129398B2 (priority 2008, dated 2012)
